Like-named read-outs stand apart in the source and are kept apart here.
Legend:
[1] = system: P. yoelii blood stage infection in mice; assay: In vivo single-dose cure against murine malaria; conditions: lowest single dose that cures all 4 mice; P. yoelii, dose on Day 1; prodrugs dosed on molar equivalency to parent drug
Experimental: Animals that remained aparasitemic out to […] were scored as cures.
In Vivo Single-Dose Efficacy against Murine Malaria. The effectiveness of selected 3-biarylELQs and prodrugs was assessed vs. the blood stage infection for single dose cures. Mice are infected iv with 3.5×10^4 P. yoelii infected RBCs as described for the 4-day test above. Drug administration occurred on the day after inoculation (Day 1). Test agents were dissolved in PEG-400 and administered ig once. On the 5th day blood films were prepared and % parasitemia was assessed. Animals remaining parasite-free for 30 days after drug administration were considered cured. The initial dosing range was: 0.5, 1, 2.5, 5, 10 mg/kg, including a control. Experiments were performed with 4 mice per group to ensure statistical accuracy. The reported parameter for these studies is the lowest single dose that provides a cure to all 4 animals in the group.

[2] = system: P. falciparum Dd2 strain (multidrug resistant); assay: microbe, parasite or virus in culture; type: cell-based, Plasmodium falciparum; conditions: Plasmodium falciparum, DD2, 72 h, read-out: P. falciparum IC50 values, nM Dd2
Experimental: (§1) Rationale for Synthesis of a 3-Biaryl Version of ELQ-300. […] All of this information is stored in a database with information relating to chemical structure, physical chemical properties, cross resistance patterns, mammalian cell cytotoxicity, enzyme inhibitor profiles, and synthesis details. […] We employed the SyBr Green assay and the plates were incubated for 72 hours before harvesting^18, 19. […] Stock solutions were freshly prepared in DMSO.
(§2) Plasmodium falciparum Culture. Laboratory strains of P. falciparum were cultured in human erythrocytes by standard methods. The parasites were grown in culture medium with fresh human erythrocytes maintained at 2% hematocrit at 37° C. in low-oxygen conditions (5% O2, 5% CO2, […] balance N2). […] Cultures were maintained at less than 10% parasitemia by transfer of infected cells to fresh erythrocytes and culture medium every 3 or 4 days.
(§3) In vitro drug susceptibility assays. SYBR green I assay. In vitro antiplasmodial activity was assessed using a published SYBR Green I fluorescence-based method. The drugs were added to 96-well plates using 2-fold serial dilutions in complete medium. […] Asynchronous P. falciparum parasites were diluted with uninfected erythrocytes and added to the wells to give a final culture volume of 100 μl at 2% hematocrit and 0.2% parasitemia. […] The parasites were then lysed by adding 100 μl of SYBR green I lysis buffer containing 0.2 μl/ml SYBR green I dye (10,000×) in 20 mM Tris (pH 7.5), 5 mM EDTA, 0.008% (wt/vol) saponin, and 0.08% (vol/vol) Triton X-100. The plates were incubated at room temperature for an hour in the dark. […] If the IC50 value fell outside of the initial tested range then the range was adjusted up or down and the assay was repeated.

[3] = system: P. falciparum D1 clone (ELQ-300 resistant); assay: microbe, parasite or virus in culture; type: cell-based; conditions: Plasmodium falciparum, 72 h, read-out: P. falciparum IC50 values, nM D1
[4] = system: P. falciparum D6 strain (drug sensitive); assay: In vitro antiplasmodial activity, SYBR Green I assay, D6 strain; type: cell-based, Plasmodium falciparum; conditions: Plasmodium falciparum, read-out: P. falciparum IC50 values, nM D6
Experimental: as §1, §2, §3

[5] = system: P. yoelii (Kenya Strain) blood stage infection in mice; assay: 4-day Peters test against murine malaria; type: in vivo; conditions: P. yoelii in mice, oral gavage in PEG400 on Days 1-4; prodrugs dosed on molar equivalency to parent drug
Experimental: On Day 5 a drop of blood was taken from the tail and a blood smear was prepared, fixed with methanol, and stained with Giemsa. The operator then examined the stained smear microscopically to determine percent parasitemia. Dosages of 0.0025, 0.005, 0.01, 0.03, 0.1, 0.3, 1.0 and 10 mg/kg/day were used for the experiment. […] In this model animals were inoculated exactly as for the 4-day test on Day 0 however drug was administered only on Day 1 while the operator made smears on Day 5 and again weekly thereafter for animals that remained aparasitemic. Animals that remained aparasitemic out to […] were scored as cures.
In Vivo Efficacy against Murine Malaria. The P. yoelii 4-day test monitors suppression of patent infection in female CF1 mice. The test began with the inoculation (iv) of parasitized erythrocytes (3.5×10^4/P. yoelli) (from a donor animal) on the first day of the experiment (D0). […] Initially the 3-biaryl-ELQs were tested at doses of 0.0025, 0.005, 0.01, 0.03, 0.1, 0.3, 1.0 and 10 mg/kg/day, including a vehicle-only (PEG400) control. After completion of drug treatment, a blood sample was collected (by pricking the tail vein) for determination of parasite burden beginning on the day after the final dose (D5). Percent parasitemia is assessed by direct microscopic analysis of Giemsa-stained blood smears. […] Animals with observable parasitemia following the experiment were euthanized; animals cleared of parasites from the bloodstream were observed daily with assessment of parasitemia performed weekly until day 30, at which point the animal(s) were scored as cured of infection. […] Non-linear regression analysis is used for objective determination of ED50's and ED90's from the accumulated data as well as the Non-Recrudescence Dose (NRD). The 4-day test protocol was reviewed and approved by the local IACUC board at the Portland VA Medical Center. Experiments were performed with 4 mice per group to ensure statistical accuracy.

[6] = system: P. falciparum Tm90-C2B (atovaquone-resistant clinical isolate); assay: In vitro antiplasmodial activity, SYBR Green I assay, Tm90-C2B; type: cell-based; conditions: Plasmodium falciparum, read-out: P. falciparum IC50 values, nM Tm90-C2B
Experimental: as §1, §2, §3

[7] = target: T1, human liver cytochrome bc1 complex (Homo sapiens, UniProt P00156); conditions: data taken from Nilsen et al., 2013 (a) or Frueh et al., 2017 (b); cited from earlier work
T1 construct: human host cytochrome bc1 complex isolated from human liver tissue; from tissue; host or cells: human liver tissue

HepG2 cells = assay: HepG2 cytotoxicity, TiterGlo ATP luminescence, galactose medium; type: cell-based, human; conditions: HepG2, galactose medium, 48 hours
Experimental: […]. Of course, enhanced potency is desirable only if unaccompanied by enhanced toxicity. […] […]. The incubation period for these experiments was 48 hours.

[8] = target: T2, P. falciparum cytochrome bc1 complex (Plasmodium falciparum, UniProt Q02768); conditions: data taken from Nilsen et al., 2013 (a) or Frueh et al., 2017 (b); cited from earlier work
T2 construct: endogenous in cells
T2 sequence (Q02768 1-376): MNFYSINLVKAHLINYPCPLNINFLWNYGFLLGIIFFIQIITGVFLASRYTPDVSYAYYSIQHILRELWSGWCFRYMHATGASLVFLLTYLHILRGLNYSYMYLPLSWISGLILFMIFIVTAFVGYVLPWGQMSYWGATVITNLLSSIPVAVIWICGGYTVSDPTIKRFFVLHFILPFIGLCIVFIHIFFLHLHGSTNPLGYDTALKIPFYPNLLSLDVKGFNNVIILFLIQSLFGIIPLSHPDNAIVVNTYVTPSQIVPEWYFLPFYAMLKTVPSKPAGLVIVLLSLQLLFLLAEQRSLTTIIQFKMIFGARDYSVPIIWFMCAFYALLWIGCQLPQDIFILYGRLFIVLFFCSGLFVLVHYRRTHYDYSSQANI

[9] = Murine microsomal metabolic stability; conditions: mouse, pooled liver microsomes, pH 7.4, T1/2 (minutes), murine liver microsomes 0.5 mg/ml, 37° C., NADPH, 45 minutes
Text: Ketanserin served as an internal standard for the metabolic rate of a known drug with known intermediate stability.
Imipramine or Osalmid were used as internal standards, and ketanserin was used as a control drug with intermediate stability.

[10] = D6 strain, 72 h incubation, averages of quadruplicate with (95% confidence intervals)
[11] = Tm90-C2B strain, 72 h incubation, averages of quadruplicate with (95% confidence intervals)

SMILES | IC50 [2] | IC50 [3] | IC50 [4, 10] | 4-day Peters Test Results NRD (non-recrudescence dose) [5] | IC50 [6, 11] | also measured
O=C1C(O)=C([C@H]2CC[C@H](c3ccc(Cl)cc3)CC2)C(=O)c2ccccc21 [Atovaquone, reference compound] | 0.4 nM | 0.4 nM | 0.08 nM | 10 mg/kg/day | > 1000 nM | Single dose cure [1]: 10 mg/kg/day; 4-day Peters Test Results ED50 [5]: 0.1 mg/kg/day; IC50 [7]: 460 nM
C=C(C)[C@H]1Cc2c(ccc3c2O[C@@H]2COc4cc(OC)c(OC)cc4[C@@H]2C3=O)O1 [rotenone, reference compound] |  |  |  |  |  | EC50 (cytotoxicity) (HepG2 cells): quite cytotoxic
CCOC(=O)OCOc1c(-c2ccc(Oc3ccc(OC(F)(F)F)cc3)cc2)c(C)nc2cc(OC)c(Cl)cc12 [ELQ-331, reference compound] |  |  |  | 1.0 mg/kg/day |  | Single dose cure [1]: 3 mg/kg/day; IC50 [8]: 5300 nM; 4-day Peters Test Results ED90 [5]: 0.05 mg/kg/day; IC50 [7]: > 10000 nM
COc1ccc2c(=O)c(-c3ccc(-c4cccc(C(F)(F)F)c4)cc3)c(C)[nH]c2c1 [ELQ-730, 7-Methoxy-2-methyl-3-(3′-(trifluoromethyl)-[1,1′-biphenyl]-4-yl)quinolin-4(1H)-one] | 5.33 nM | 3.82 nM | 5.02 nM |  | 4.05 nM | 
COc1ccc2c(=O)c(-c3ccc(-c4cc(F)c(OC)c(F)c4)cc3)c(C)[nH]c2c1 [ELQ-734, 3-(3′,5′-difluoro-4′-methoxy-[1,1′-biphenyl]-4-yl)-7-methoxy-2-methylquinolin-4(1H)-one] | 16.3 nM | 11.6 nM | 10.9 nM |  | 6.4 nM | 
CCOC(=O)OCOc1c(-c2ccc(-c3ccc(OC(F)(F)F)cc3)cc2)c(C)nc2cc(OC)ccc12 [ELQ-695, Ethyl (((7-methoxy-2-methyl-3-(4′-(trifluoromethoxy)-[1,1′-biphenyl]-4-yl)quinolin-4-yl)oxy)methyl) carbonate] | 22.3 nM | 8.4 nM | 20.9 nM | 3.7 mg/kg/day | 10.1 nM | half-life at 1 μM [9]: > 66.7 h; 4-day Peters Test Results ED50 [5]: 0.2 mg/kg/day; 4-day Peters Test Results ED90 [5]: 0.3 mg/kg/day
COc1ccc2c(=O)c(-c3ccc(-c4ccc(OC(F)(F)F)cc4)cc3)c(C)[nH]c2c1 [ELQ-685, 7-Methoxy-2-methyl-3-(4′-(trifluoromethoxy)-[1,1′-biphenyl]-4-yl)quinolin-4(1H)-one] | 8.5 nM | 3.5 nM | 5.8 nM |  | 5.2 nM | half-life at 1 μM [9]: > 66.7 h
COc1ccc2c(=O)c(-c3ccc(-c4ccc(F)cc4OC)cc3)c(C)[nH]c2c1 [ELQ-756, 3-(4′-Fluoro-2′-methoxy-[1,1′-biphenyl]-4-yl)-7-methoxy-2-methylquinolin-4(1H)-one] | 4.46 nM | 2.06 nM | 3.27 nM |  | 3.22 nM | 
COc1ccc2c(=O)c(-c3ccc(-c4ccc(C(F)(F)F)cc4OC)cc3)c(C)[nH]c2c1 [ELQ-757] | 4.85 nM | 1.91 nM |  |  |  | IC50 ([4]; D6, 72 h): 3.08 nM; IC50 ([6]; TM90, 72 h): 3 nM
CCN(CC)CCCC(C)Nc1ccnc2cc(Cl)ccc12 (stereo not drawn) [CQ, chloroquine, reference compound] |  |  |  | >64 mg/kg/day |  | Single dose cure [1]: >64 mg/kg/day
COc1ccc2c(=O)c(-c3ccc(-c4cc(F)c(OC(F)(F)F)c(F)c4)cc3)c(C)[nH]c2c1 [ELQ-733, 3-(3′,5′-difluoro-4′-(trifluoromethoxy)-[1,1′-biphenyl]-4-yl)-7-methoxy-2-methylquinolin-4(1H)-one] | 7.9 nM | 6.18 nM | 7.45 nM |  | 2.94 nM | 
COc1ccc2c(=O)c(-c3ccc(-c4cc(C(F)(F)F)cc(C(F)(F)F)c4)cc3)c(C)[nH]c2c1 [ELQ-731, 3-(3′,5′-bis(trifluoromethyl)-[1,1′-biphenyl]-4-yl)-7-methoxy-2-methylquinolin-4(1H)-one] | 4.73 nM | 5.56 nM | 3.93 nM |  | 2.05 nM | 
COc1ccc2c(=O)c(-c3ccc(-c4cccc(OC(F)(F)F)c4)cc3)c(C)[nH]c2c1 [ELQ-732, 7-methoxy-2-methyl-3-(3′-(trifluoromethoxy)-[1,1′-biphenyl]-4-yl)quinolin-4(1H)-one] | 16.3 nM | 10.6 nM | 15.9 nM |  | 14.4 nM | 
